Measurements as given in publication PMC7486443, “Generation of Phenothiazine with Potent Anti-TLK1 Activity for Prostate Cancer Therapy” (iScience, 2020).

Assays:
Test in all cases: biochemical
Set-up in all cases: DiscoverX KINOMEscan scanMAX competition binding panel, single concentration, percent of control; remaining binding: dose or concentration left out as unconfirmed
Settings in all cases: KINOMEscan binding, percent of control; read-out: Table S4_SCANMAX REPORT - related to Fig. 1 / Percent Control
[1] = target: T1, ABL1(Y253F)-phosphorylated (Homo sapiens, UniProt P00519, Y253F)
T1 construct: phosphorylated

[2] = target: T2, ABL1-phosphorylated (Homo sapiens, UniProt P00519)
T2 construct: phosphorylated

[3] = target: AKT3 (Homo sapiens, UniProt Q9Y243)
[4] = target: CDKL5 (Homo sapiens, UniProt O76039)
[5] = target: CSNK1G2 (Homo sapiens, UniProt P78368)
Chain of CSNK1G2 (P78368 whole entry): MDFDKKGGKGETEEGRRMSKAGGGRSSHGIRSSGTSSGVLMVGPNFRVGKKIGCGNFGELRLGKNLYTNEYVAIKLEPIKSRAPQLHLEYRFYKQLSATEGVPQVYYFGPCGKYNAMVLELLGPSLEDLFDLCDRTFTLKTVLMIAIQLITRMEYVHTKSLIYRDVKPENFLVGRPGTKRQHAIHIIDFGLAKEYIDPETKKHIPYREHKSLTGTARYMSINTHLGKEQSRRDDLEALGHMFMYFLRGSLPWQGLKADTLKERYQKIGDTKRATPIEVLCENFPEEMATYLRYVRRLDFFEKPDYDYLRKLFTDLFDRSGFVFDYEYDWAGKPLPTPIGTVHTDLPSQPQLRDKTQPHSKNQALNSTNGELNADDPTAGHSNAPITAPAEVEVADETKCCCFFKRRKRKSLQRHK

[6] = target: DAPK3 (Homo sapiens, UniProt O43293)
[7] = target: EGFR(G719C) (Homo sapiens, UniProt P00533, G719C)
Chain of EGFR(G719C) (P00533 whole entry G719C): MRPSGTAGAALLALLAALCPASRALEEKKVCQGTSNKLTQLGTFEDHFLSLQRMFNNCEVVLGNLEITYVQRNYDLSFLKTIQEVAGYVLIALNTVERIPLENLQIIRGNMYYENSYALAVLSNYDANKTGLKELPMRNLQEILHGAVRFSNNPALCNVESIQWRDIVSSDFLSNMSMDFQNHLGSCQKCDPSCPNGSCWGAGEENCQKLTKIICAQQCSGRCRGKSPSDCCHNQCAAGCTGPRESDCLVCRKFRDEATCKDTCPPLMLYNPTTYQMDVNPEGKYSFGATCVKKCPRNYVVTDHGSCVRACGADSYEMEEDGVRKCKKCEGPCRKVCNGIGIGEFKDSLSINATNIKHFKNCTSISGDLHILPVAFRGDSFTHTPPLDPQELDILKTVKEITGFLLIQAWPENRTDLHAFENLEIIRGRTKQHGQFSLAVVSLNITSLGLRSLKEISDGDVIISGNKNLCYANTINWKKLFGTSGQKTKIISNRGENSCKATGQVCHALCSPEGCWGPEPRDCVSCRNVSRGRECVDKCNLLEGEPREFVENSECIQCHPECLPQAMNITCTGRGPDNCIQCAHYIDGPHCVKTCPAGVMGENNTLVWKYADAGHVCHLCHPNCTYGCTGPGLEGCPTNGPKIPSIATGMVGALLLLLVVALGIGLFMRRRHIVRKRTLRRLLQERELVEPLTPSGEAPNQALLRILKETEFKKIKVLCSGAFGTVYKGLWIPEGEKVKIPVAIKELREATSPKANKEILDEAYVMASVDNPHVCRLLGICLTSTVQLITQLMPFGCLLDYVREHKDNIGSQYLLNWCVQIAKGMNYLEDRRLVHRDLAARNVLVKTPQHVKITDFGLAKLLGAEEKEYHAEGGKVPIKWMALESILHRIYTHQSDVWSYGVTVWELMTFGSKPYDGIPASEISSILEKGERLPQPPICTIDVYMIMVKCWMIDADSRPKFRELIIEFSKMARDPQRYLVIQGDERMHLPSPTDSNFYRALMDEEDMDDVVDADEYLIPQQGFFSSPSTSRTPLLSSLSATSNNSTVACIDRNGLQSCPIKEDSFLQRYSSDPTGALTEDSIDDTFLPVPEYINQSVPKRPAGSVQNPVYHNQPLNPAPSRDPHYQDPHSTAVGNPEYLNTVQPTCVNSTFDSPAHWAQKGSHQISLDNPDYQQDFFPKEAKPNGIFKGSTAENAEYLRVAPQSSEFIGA

[8] = target: EGFR(L747-S752del, P753S) (Homo sapiens, UniProt P00533, DEL747-752/P753S)
[9] = target: T3, ERK2 (Homo sapiens, UniProt P28482)
T3 construct: gene MAPK1

[10] = target: GAK (Homo sapiens, UniProt O14976)
[11] = target: T4, MEK2 (Homo sapiens, UniProt P36507)
T4 construct: gene MAP2K2
T4 sequence (P36507 whole entry): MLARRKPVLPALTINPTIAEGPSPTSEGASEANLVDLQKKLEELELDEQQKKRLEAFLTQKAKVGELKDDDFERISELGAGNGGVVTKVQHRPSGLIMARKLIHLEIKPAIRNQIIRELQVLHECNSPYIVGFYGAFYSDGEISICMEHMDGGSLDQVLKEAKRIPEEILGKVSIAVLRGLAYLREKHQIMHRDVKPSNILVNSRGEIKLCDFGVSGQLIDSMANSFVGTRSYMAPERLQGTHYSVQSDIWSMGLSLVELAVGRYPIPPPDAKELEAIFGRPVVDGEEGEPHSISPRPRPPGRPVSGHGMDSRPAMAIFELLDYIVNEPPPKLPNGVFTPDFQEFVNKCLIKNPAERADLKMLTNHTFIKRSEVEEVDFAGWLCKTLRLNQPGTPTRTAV

[12] = target: T5, MLK2 (Homo sapiens, UniProt Q02779)
T5 construct: gene MAP3K10
T5 sequence (Q02779 whole entry): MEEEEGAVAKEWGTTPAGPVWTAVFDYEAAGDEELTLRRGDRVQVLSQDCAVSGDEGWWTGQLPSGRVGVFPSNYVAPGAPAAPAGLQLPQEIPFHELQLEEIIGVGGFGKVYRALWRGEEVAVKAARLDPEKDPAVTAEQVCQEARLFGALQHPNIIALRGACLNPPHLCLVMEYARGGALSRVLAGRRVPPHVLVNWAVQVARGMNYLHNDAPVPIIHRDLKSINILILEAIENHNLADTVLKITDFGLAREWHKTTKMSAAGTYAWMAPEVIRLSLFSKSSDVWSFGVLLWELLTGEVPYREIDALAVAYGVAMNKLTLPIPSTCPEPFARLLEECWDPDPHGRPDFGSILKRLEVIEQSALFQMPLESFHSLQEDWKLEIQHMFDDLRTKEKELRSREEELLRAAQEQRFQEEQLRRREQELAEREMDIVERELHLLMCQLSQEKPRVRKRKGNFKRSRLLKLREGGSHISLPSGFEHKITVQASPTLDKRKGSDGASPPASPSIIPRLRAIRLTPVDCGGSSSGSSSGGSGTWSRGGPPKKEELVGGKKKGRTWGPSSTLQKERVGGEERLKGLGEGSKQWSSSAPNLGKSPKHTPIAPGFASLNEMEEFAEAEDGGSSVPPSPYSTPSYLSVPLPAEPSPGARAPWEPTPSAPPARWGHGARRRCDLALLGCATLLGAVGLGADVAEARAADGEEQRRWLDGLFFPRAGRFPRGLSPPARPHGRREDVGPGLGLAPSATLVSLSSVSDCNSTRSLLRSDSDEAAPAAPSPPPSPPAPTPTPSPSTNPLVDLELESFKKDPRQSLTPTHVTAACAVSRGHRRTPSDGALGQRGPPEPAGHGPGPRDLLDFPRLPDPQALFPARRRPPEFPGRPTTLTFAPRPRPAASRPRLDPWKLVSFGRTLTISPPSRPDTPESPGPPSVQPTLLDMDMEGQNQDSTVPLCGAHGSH

[13] = target: PIK3CA(Q546K) (Homo sapiens, UniProt P42336, Q546K)
Chain of PIK3CA(Q546K) (P42336 whole entry Q546K): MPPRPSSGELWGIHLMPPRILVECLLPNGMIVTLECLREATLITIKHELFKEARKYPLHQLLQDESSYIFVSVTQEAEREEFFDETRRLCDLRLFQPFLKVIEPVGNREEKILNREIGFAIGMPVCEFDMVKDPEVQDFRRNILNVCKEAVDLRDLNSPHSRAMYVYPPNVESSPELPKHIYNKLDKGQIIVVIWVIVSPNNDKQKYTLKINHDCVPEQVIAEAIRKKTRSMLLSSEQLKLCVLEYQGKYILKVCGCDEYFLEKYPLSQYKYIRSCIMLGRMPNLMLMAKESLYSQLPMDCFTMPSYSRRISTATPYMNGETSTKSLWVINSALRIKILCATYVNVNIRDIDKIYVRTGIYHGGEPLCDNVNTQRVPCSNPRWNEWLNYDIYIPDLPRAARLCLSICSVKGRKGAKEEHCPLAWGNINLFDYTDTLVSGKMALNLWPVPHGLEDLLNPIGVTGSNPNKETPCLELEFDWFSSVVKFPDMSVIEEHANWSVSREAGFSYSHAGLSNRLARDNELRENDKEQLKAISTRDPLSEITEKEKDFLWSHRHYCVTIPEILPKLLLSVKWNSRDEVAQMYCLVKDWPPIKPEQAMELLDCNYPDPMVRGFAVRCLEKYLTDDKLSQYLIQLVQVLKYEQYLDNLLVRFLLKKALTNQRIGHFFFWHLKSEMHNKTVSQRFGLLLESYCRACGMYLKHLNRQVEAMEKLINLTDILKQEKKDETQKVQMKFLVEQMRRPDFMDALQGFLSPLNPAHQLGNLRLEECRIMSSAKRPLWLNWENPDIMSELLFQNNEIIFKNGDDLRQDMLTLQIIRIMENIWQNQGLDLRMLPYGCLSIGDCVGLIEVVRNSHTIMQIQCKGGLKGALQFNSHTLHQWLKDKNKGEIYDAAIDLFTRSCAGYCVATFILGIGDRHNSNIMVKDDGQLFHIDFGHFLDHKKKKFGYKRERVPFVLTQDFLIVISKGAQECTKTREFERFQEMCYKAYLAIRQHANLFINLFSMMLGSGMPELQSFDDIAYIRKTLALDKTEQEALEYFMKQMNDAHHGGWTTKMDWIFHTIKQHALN

[14] = target: T6, PIP5K2B (Homo sapiens, UniProt P78356)
T6 construct: gene PIP4K2B

[15] = target: T7, PRKR (Homo sapiens, UniProt P19525)
T7 construct: gene EIF2AK2
T7 sequence (P19525 whole entry): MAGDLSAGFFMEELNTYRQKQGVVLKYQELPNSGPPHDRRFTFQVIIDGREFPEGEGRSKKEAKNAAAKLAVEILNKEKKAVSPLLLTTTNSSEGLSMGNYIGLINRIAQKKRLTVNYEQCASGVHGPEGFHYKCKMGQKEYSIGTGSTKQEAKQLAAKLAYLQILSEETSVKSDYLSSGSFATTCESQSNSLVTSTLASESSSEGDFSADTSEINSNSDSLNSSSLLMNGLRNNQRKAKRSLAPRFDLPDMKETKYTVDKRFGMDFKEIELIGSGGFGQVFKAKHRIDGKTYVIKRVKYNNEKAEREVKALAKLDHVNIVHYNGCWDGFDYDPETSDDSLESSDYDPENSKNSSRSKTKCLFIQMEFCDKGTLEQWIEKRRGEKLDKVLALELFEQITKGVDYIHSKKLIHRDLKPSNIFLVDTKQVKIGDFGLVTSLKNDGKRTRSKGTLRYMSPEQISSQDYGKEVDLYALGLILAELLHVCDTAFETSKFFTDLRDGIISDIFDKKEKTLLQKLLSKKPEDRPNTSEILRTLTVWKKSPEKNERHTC

[16] = target: SBK1 (Homo sapiens, UniProt Q52WX2)
Chain of SBK1 (Q52WX2 whole entry): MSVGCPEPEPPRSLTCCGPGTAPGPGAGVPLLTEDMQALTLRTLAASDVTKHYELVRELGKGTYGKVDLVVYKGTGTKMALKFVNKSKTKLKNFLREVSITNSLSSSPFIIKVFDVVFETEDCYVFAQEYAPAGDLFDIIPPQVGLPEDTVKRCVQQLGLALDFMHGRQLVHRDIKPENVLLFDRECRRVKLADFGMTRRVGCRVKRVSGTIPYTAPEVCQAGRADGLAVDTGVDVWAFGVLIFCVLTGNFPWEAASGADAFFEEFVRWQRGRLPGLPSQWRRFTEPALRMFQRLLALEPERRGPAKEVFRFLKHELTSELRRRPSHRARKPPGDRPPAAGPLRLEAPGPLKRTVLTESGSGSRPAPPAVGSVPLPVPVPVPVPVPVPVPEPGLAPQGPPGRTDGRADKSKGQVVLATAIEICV

[17] = target: STK36 (Homo sapiens, UniProt Q9NRP7)
[18] = target: TYRO3 (Homo sapiens, UniProt Q06418)

c1ccc2c(c1)Sc1ccccc1N2CCN1CCOCC1 [J54]
remaining binding [1]: 79%
remaining binding [2]: 71%
remaining binding [3]: 84%
remaining binding [4]: 100%
remaining binding [5]: 93%
remaining binding [6]: 96%
remaining binding [7]: 100%
remaining binding [8]: 92%
remaining binding [9]: 97%
remaining binding [10]: 95%
remaining binding [11]: 100%
remaining binding [12]: 97%
remaining binding [13]: 100%
remaining binding [14]: 51%
remaining binding [15]: 93%
remaining binding [16]: 93%
remaining binding [17]: 67%
remaining binding [18]: 100%
